In ChEMBL document CHEMBL1155743, “New bromoditerpenes from the red alga Sphaerococcus coronopifolius” (J Nat Prod, 2001):
In brackets after ≈: the same amount, converted by molar mass.

Columns and labels:
[1] = system: Staphylococcus aureus; assay: Antibacterial activity against Staphylococcus aureus ATCC 6538 by disk diffusion assay; format: functional
[2] = system: Plasmodium falciparum; assay: Antimalarial activity against chloroquine-resistant Plasmodium falciparum FCB1 in human blood by [3H]hypoxanthine uptake; format: functional, organism-based

**Q.** CC(C)[C@@H]1C=C[C@H](O)[C@H]2[C@@H]3[C@](C)(O)[C@@H](O)C[C@H](Br)[C@@]3(C)CC[C@@]21CBr was tested. Which MIC [1] did it give?
**A.** 0.146 µM (≈ 0.0701 µg/mL)

**Q.** With CC(C)[C@@H]1C=CC(=O)[C@H]2[C@@H]3[C@](C)(O)[C@@H](O)C[C@H](Br)[C@@]3(C)CC[C@]12CBr [BROMOSPHAERONE] as the compound, how does the MIC [1] read?
**A.** 0.104 µM (≈ 0.0497 µg/mL)

**Q.** With CC(C)[C@@H]1CC=C[C@H]2[C@H]3[C@@](C)(C=CC(=O)[C@@]3(C)O)CC[C@]12CBr [SPHAEROCOCCENOL A] as the compound, how does the IC50 [2] read?
**A.** 1000 nM
